This passage reports Ratio IC50, IC50 and Activity results from ChEMBL document CHEMBL1149673, “A novel approach to cyclin-dependent kinase 5/p25 inhibitors: A potential treatment for Alzheimer's disease” (Bioorg Med Chem, 2007).

The species named for the first series is Homo sapiens. The series is described as follows: Selectivity for Cdk5/p25 over Cdk2/cyclin E.
Details: not given; call rule not given here
In the case of `O=C(CCl)Nc1cc(-c2ccccc2)c(-c2nnc3sc(-c4ccccc4)nn23)s1`, the Ratio IC50 was 3.2.
For the compound `CC(=O)Nc1cc(-c2ccccc2)c(-c2nnc3sc(-c4ccccc4)nn23)s1`, the Ratio IC50 came to 1.2.
On the same count and under the same terms, as for `Cc1cc(NC(=O)CCl)sc1-c1nnc2sc(-c3ccccc3)nn12`, the figure is 3.2.
In the case of `O=C(CCl)Nc1cc(-c2ccccc2)c(-c2nnc3sc(-c4cccc([N+](=O)[O-])c4)nn23)s1`, the Ratio IC50 was 1.
The same measure, in the same setting: as for `CC(=O)Nc1cc(C)c(-c2nnc3n2Nc2nc4ccccc4nc2S3)s1`, the figure is 2; as for `O=C(CCl)Nc1cc(-c2ccccc2)c(-c2nnc3n2NC(c2ccccc2)=C(c2ccccc2)S3)s1`, 2; as for `CC(=O)Nc1cc(C)c(-c2nnc3sc(-c4ccccc4)nn23)s1`, 1.2.
Turning to `CC(=O)Nc1cc(C)c(-c2nnc3n2NC(c2ccccc2)=C(c2ccccc2)S3)s1`, the Ratio IC50 came to 2.
Still for that read-out and setting: the figure for `CC(=O)Nc1cc(C)c(-c2nnc(S)n2N)s1` is 1.
The same measure, in the same setting: as for `CC(=O)Nc1cc(-c2ccccc2)c(-c2nnc3n2NC(c2ccccc2)=C(c2ccccc2)S3)s1`, the figure is 2; as for `CC(=O)Nc1cc(-c2ccccc2)c(-c2nnc(S)n2N)s1`, 1.
For `CC(=O)Nc1cc(C)c(-c2nnc3sc(-c4cccc([N+](=O)[O-])c4)nn23)s1`, the Ratio IC50 was determined as 1.
The same measure, in the same setting: the figure for `CC(=O)Nc1cc(-c2ccccc2)c(-c2nnc3n2Nc2nc4ccccc4nc2S3)s1` is 1.2.
For the compound `Cc1cc(NC(=O)CCl)sc1-c1nnc2sc(-c3cccc([N+](=O)[O-])c3)nn12`, the Ratio IC50 was found to be 1.
In the case of `CC(=O)Nc1cc(-c2ccccc2)c(-c2nnc3sc(-c4cccc([N+](=O)[O-])c4)nn23)s1`, the Ratio IC50 turned out to be 1.
Still for that read-out and setting: the figure for `Cc1cc(NC(=O)CCl)sc1-c1nnc2n1NC(c1ccccc1)=C(c1ccccc1)S2` is 2; for `Cc1cc(NC(=O)CCl)sc1-c1nnc2n1Nc1nc3ccccc3nc1S2` it is 2.2.
Regarding `O=C(CCl)Nc1cc(-c2ccccc2)c(-c2nnc3n2Nc2nc4ccccc4nc2S3)s1`, the Ratio IC50 came to 3.2.
The same measure, in the same setting: the figure for `Nn1c(S)nnc1-c1sc(NC(=O)CCl)cc1-c1ccccc1` is 3.

Another series deals with Cyclin-dependent kinase 5/CDK5 activator 1 (Homo sapiens, UniProt Q00535). The series is described as follows: Inhibitory activity against Cdk5/p25.
Cyclin-dependent kinase 5/CDK5 activator 1, sequence (Q00535 whole entry): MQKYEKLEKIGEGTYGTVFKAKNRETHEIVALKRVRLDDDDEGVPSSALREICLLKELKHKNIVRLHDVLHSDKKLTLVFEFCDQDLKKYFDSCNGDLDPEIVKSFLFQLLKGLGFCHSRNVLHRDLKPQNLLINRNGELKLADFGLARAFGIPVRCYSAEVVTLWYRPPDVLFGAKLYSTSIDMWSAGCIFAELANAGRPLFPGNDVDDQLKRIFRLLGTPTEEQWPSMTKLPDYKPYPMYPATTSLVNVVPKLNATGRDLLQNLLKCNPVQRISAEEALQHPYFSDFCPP
Cyclin-dependent kinase 5/CDK5 activator 1, sequence (Q15078 whole entry, further chain): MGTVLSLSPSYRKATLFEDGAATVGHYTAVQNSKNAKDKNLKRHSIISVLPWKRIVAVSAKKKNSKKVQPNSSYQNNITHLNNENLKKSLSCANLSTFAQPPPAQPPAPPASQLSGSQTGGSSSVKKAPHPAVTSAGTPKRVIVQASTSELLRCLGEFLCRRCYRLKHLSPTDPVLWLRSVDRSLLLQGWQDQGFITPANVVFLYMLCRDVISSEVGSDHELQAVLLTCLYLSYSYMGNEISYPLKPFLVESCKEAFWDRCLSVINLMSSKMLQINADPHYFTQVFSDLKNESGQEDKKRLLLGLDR
Details: not given
Type of series: protein-complex assay.
The compound `O=C(CCl)Nc1cc(-c2ccccc2)c(-c2nnc3sc(-c4ccccc4)nn23)s1` had an IC50 of 28 nM.
Still for that read-out and setting: the figure for `Cc1cc(NC(=O)CCl)sc1-c1nnc2n1N=C(c1cc(F)c(Cl)cc1Cl)/C(=C/c1ccccc1)S2` is 3420 nM; for `CC(=O)Nc1cc(C)c(-c2nnc3n2NC(=O)CS3)s1` it is 630 nM.
On the same count and under the same terms, the figure for `CC(=O)Nc1cc(-c2ccccc2)c(-c2nnc3sc(-c4ccccc4)nn23)s1` is 38 nM; for `Cc1cc(NC(=O)CCl)sc1-c1nnc2sc(-c3ccccc3)nn12` it is 30 nM; for `Cc1cc(NC(=O)CCl)sc1-c1nnc2n1NC(=O)CS2` it is 820 nM.
Still for that read-out and setting: as for `CC1=Nn2c(nnc2-c2sc(NC(=O)CCl)cc2-c2ccccc2)SC1`, the figure is 368 nM; as for `O=C(CCl)Nc1cc(-c2ccccc2)c(-c2nnc3sc(-c4cccc([N+](=O)[O-])c4)nn23)s1`, 48 nM.
Compound `CC(=O)Nc1cc(-c2ccccc2)c(-c2nnc3n2NC(=O)CS3)s1` had an IC50 of 418 nM.
On the same count and under the same terms, the figure for `CC(=O)Nc1cc(C)c(-c2nnc3n2Nc2nc4ccccc4nc2S3)s1` is 34 nM.
The compound `O=C(CCl)Nc1cc(-c2ccccc2)c(-c2nnc3n2NC(c2ccccc2)=C(c2ccccc2)S3)s1` displayed an IC50 of 62 nM.
As to `CC(=O)Nc1cc(C)c(-c2nnc3sc(-c4ccccc4)nn23)s1`, the IC50 amounted to 42 nM.
In turn, `CC(=O)Nc1cc(C)c(-c2nnc3n2NC(c2ccccc2)=C(c2ccccc2)S3)s1` registered an IC50 of 44 nM.
Compound `CC(=O)Nc1cc(C)c(-c2nnc(S)n2N)s1` had an IC50 of 58 nM.
`CC(=O)Nc1cc(-c2ccccc2)c(-c2nnc3n2NC(c2ccccc2)=C(c2ccccc2)S3)s1` came in with an IC50 of 40 nM.
`CC(=O)Nc1cc(-c2ccccc2)c(-c2nnc(S)n2N)s1`: the IC50 worked out at 54 nM.
`CC(=O)Nc1cc(C)c(-c2nnc3sc(-c4cccc([N+](=O)[O-])c4)nn23)s1` returned an IC50 of 64 nM.
The same measure, in the same setting: as for `CC(=O)Nc1cc(-c2ccccc2)c(-c2nnc3n2Nc2nc4ccccc4nc2S3)s1`, the figure is 54 nM; as for `Cc1cc(NC(=O)CCl)sc1-c1nnc2sc(-c3cccc([N+](=O)[O-])c3)nn12`, 53 nM.
On the same count and under the same terms, as for `CC(=O)Nc1cc(-c2ccccc2)c(-c2nnc3sc(-c4cccc([N+](=O)[O-])c4)nn23)s1`, the figure is 60 nM; as for `Cc1cc(NC(=O)CCl)sc1-c1nnc2n1NC(c1ccccc1)=C(c1ccccc1)S2`, 72 nM.
For `Cc1cc(NC(=O)CCl)sc1-c1nnc2n1Nc1nc3ccccc3nc1S2`, the IC50 came out at 64 nM.
The same measure, in the same setting: as for `O=C(CCl)Nc1cc(-c2ccccc2)c(-c2nnc3n2Nc2nc4ccccc4nc2S3)s1`, the figure is 30 nM.
Consider `Nn1c(S)nnc1-c1sc(NC(=O)CCl)cc1-c1ccccc1`, for which it took 42 nM to reach half-maximal inhibition (IC50).

Test system in a further series: not listed separately
The series is described as follows: Inhibitory activity against Cdk2/cyclin E.
Details: not given
The arrangement: species or system Homo sapiens.
With `O=C(CCl)Nc1cc(-c2ccccc2)c(-c2nnc3sc(-c4ccccc4)nn23)s1`, the IC50 was found to be 92 nM.
The same measure, in the same setting: the figure for `CC(=O)Nc1cc(-c2ccccc2)c(-c2nnc3sc(-c4ccccc4)nn23)s1` is 44 nM; for `Cc1cc(NC(=O)CCl)sc1-c1nnc2sc(-c3ccccc3)nn12` it is 95 nM; for `O=C(CCl)Nc1cc(-c2ccccc2)c(-c2nnc3sc(-c4cccc([N+](=O)[O-])c4)nn23)s1` it is 52 nM.
The same measure, in the same setting: as for `CC(=O)Nc1cc(C)c(-c2nnc3n2Nc2nc4ccccc4nc2S3)s1`, the figure is 70 nM; as for `O=C(CCl)Nc1cc(-c2ccccc2)c(-c2nnc3n2NC(c2ccccc2)=C(c2ccccc2)S3)s1`, 126 nM; as for `CC(=O)Nc1cc(C)c(-c2nnc3sc(-c4ccccc4)nn23)s1`, 51 nM.
The same measure, in the same setting: the figure for `CC(=O)Nc1cc(C)c(-c2nnc3n2NC(c2ccccc2)=C(c2ccccc2)S3)s1` is 89 nM; for `CC(=O)Nc1cc(C)c(-c2nnc(S)n2N)s1` it is 53 nM.
With `CC(=O)Nc1cc(-c2ccccc2)c(-c2nnc3n2NC(c2ccccc2)=C(c2ccccc2)S3)s1`, the IC50 amounted to 82 nM.
Regarding `CC(=O)Nc1cc(-c2ccccc2)c(-c2nnc(S)n2N)s1`, the midpoint of inhibition, the IC50, lay at 56 nM.
With `CC(=O)Nc1cc(C)c(-c2nnc3sc(-c4cccc([N+](=O)[O-])c4)nn23)s1`, the midpoint of inhibition, the IC50, lay at 78 nM.
In turn, `CC(=O)Nc1cc(-c2ccccc2)c(-c2nnc3n2Nc2nc4ccccc4nc2S3)s1` had a half-maximal inhibitory concentration (IC50) of 64 nM.
With `Cc1cc(NC(=O)CCl)sc1-c1nnc2sc(-c3cccc([N+](=O)[O-])c3)nn12`, the concentration for half-maximal inhibition (IC50) worked out at 64 nM.
As for `CC(=O)Nc1cc(-c2ccccc2)c(-c2nnc3sc(-c4cccc([N+](=O)[O-])c4)nn23)s1`, the concentration for half-maximal inhibition (IC50) stood at 64 nM.
For `Cc1cc(NC(=O)CCl)sc1-c1nnc2n1NC(c1ccccc1)=C(c1ccccc1)S2`, 154 nM corresponded to half-maximal inhibition (IC50).
On the same count and under the same terms, the figure for `Cc1cc(NC(=O)CCl)sc1-c1nnc2n1Nc1nc3ccccc3nc1S2` is 142 nM.
In turn, `O=C(CCl)Nc1cc(-c2ccccc2)c(-c2nnc3n2Nc2nc4ccccc4nc2S3)s1` had an IC50 of 102 nM.
Still for that read-out and setting: the figure for `Nn1c(S)nnc1-c1sc(NC(=O)CCl)cc1-c1ccccc1` is 120 nM.

Test system in another series: not listed separately
The series is described as follows: Toxicity in Vero-C1008 cells at 6.25 to 50 ug/ml. Type of series: cell-based. The following applies: African green monkey.
Take `O=C(CCl)Nc1cc(-c2ccccc2)c(-c2nnc3sc(-c4ccccc4)nn23)s1`: the Activity result was “Not Active”.
Still for that read-out and setting: as for `Cc1cc(NC(=O)CCl)sc1-c1nnc2n1N=C(c1cc(F)c(Cl)cc1Cl)/C(=C/c1ccccc1)S2`, the entry is “Not Active”; as for `CC(=O)Nc1cc(C)c(-c2nnc3n2NC(=O)CS3)s1`, “Not Active”.
The same measure, in the same setting: as for `CC(=O)Nc1cc(-c2ccccc2)c(-c2nnc3sc(-c4ccccc4)nn23)s1`, the entry is “Not Active”.
For `Cc1cc(NC(=O)CCl)sc1-c1nnc2sc(-c3ccccc3)nn12`, the Activity result is given as “Not Active”.
With `Cc1cc(NC(=O)CCl)sc1-c1nnc2n1NC(=O)CS2`, the Activity result was “Not Active”.
With `CC1=Nn2c(nnc2-c2sc(NC(=O)CCl)cc2-c2ccccc2)SC1`, the Activity result was “Not Active”.
Turning to `O=C(CCl)Nc1cc(-c2ccccc2)c(-c2nnc3sc(-c4cccc([N+](=O)[O-])c4)nn23)s1`, the Activity entry is “Not Active”.
`CC(=O)Nc1cc(-c2ccccc2)c(-c2nnc3n2NC(=O)CS3)s1`: the Activity entry is on record as “Not Active”.
Same read-out and setting: the entry for `CC(=O)Nc1cc(C)c(-c2nnc3n2Nc2nc4ccccc4nc2S3)s1` is “Not Active”; for `O=C(CCl)Nc1cc(-c2ccccc2)c(-c2nnc3n2NC(c2ccccc2)=C(c2ccccc2)S3)s1` it is “Not Active”.
Same read-out and setting: as for `CC(=O)Nc1cc(C)c(-c2nnc3sc(-c4ccccc4)nn23)s1`, the entry is “Not Active”; as for `CC(=O)Nc1cc(C)c(-c2nnc3n2NC(c2ccccc2)=C(c2ccccc2)S3)s1`, “Not Active”; as for `CC(=O)Nc1cc(C)c(-c2nnc(S)n2N)s1`, “Not Active”.
Regarding `CC(=O)Nc1cc(-c2ccccc2)c(-c2nnc3n2NC(c2ccccc2)=C(c2ccccc2)S3)s1`, the Activity entry was “Not Active”.
For the compound `CC(=O)Nc1cc(-c2ccccc2)c(-c2nnc(S)n2N)s1`, the Activity entry is on record as “Not Active”.
In the case of `CC(=O)Nc1cc(C)c(-c2nnc3sc(-c4cccc([N+](=O)[O-])c4)nn23)s1`, the Activity entry is “Not Active”.
Same read-out and setting: as for `CC(=O)Nc1cc(-c2ccccc2)c(-c2nnc3n2Nc2nc4ccccc4nc2S3)s1`, the entry is “Not Active”.
The same measure, in the same setting: the entry for `Cc1cc(NC(=O)CCl)sc1-c1nnc2sc(-c3cccc([N+](=O)[O-])c3)nn12` is “Not Active”; for `CC(=O)Nc1cc(-c2ccccc2)c(-c2nnc3sc(-c4cccc([N+](=O)[O-])c4)nn23)s1` it is “Not Active”; for `Cc1cc(NC(=O)CCl)sc1-c1nnc2n1NC(c1ccccc1)=C(c1ccccc1)S2` it is “Not Active”.
For `Cc1cc(NC(=O)CCl)sc1-c1nnc2n1Nc1nc3ccccc3nc1S2`, the Activity entry is given as “Not Active”.
On the same count and under the same terms, the entry for `O=C(CCl)Nc1cc(-c2ccccc2)c(-c2nnc3n2Nc2nc4ccccc4nc2S3)s1` is “Not Active”; for `Nn1c(S)nnc1-c1sc(NC(=O)CCl)cc1-c1ccccc1` it is “Not Active”.

For orientation: IC50 means the concentration needed to halve the response being measured.
